Several values for one entry are separate records, joined by “and”; a condition that tells them apart may be missing. Identical values can stand only once. Entries after “also recorded” stand apart in the source; their conditions may differ.
Key:
[1] = tested on: human non-small cell lung cancer H460 transplanted tumor; test: RA16-EPI adduct or epirubicin on tumor growth in H460 subcutaneous tumor-bearing mice; assay type: in vivo; conditions: 3 times, day 16
Procedure: In order to clarify the effect of the nucleic acid aptamer RA16-EPI adduct on the growth of human non-small cell lung cancer solid tumors, the inventors used model mice that were injected with human non-small cell lung cancer H460 cells and constructed with a subcutaneous tumor as experimental subjects (initial mean tumor volume was 200-300 mm^3). They were randomly divided into 6 groups, each of which had 5 tumor-bearing mice. One group served as a negative control group (0.1 ml of normal saline was injected intravenously on the 0th, 7th, and 14th days respectively); and the other 5 groups served as treatment groups (different doses of drugs were given every week, and the administration manners and doses are shown in Table 2.). Every 2 days, the tumor diameter of the tumor-bearing mice was measured, the tumor volume was calculated, and the tumor growth curves were drawn (FIG. 5). On the 16th day, the tumor was extracted, the tumor was weighed, and the tumor growth inhibition rate was calculated.

[2] = tested on: human non-small cell lung cancer cell line H460; test: CCK-8 relative viability / proliferation of H460 cells; assay type: cell-based; conditions: for effect on proliferation of H460 cells: CCK-8, 48 h, 300 nM or 0-400 nM
Procedure: (§1) In order to clarify the effect of the nucleic acid aptamer RA16 on the proliferation of human non-small cell lung cancer cell lines, the inventors used the CCK-8 method (CCK-8 kit purchased from Dojindo Molecular Technologies, Inc.) to detect the relative viability of human non-small cell lung cancer cell line H460 (ATCC) and other tumor cells (human cervical cancer Hela cells) (the initial cell concentration was 2×10^4 cells/ml) after 48 h of treatment by 300 nM RA16. The same treatment was performed as the control with the same concentration of SCAP obtained by randomly shuffling the RA16.
(§2) Further, CCK-8 assay was used to detect the growth conditions of human non-small cell lung cancer H460 cells and human cervical cancer Hela cells (the concentration of test cells was about 2×10^4/ml) after 48 hours of treatment with different concentrations of nucleic acid aptamer RA16 and SCAP (concentration 0, 5, 10, 50, 100, 150, 200, 300, 400 nM respectively) with randomly srambled RA16, and after three independent experiments, the results are shown in FIG. 2A-B.
In order to clarify the effect of the nucleic acid aptamer RA16-EPI adduct on the proliferation of human non-small cell lung cancer cell lines, the inventors used the CCK-8 method to detect the relative viability of human non-small cell lung cancer cell line H460 and other tumor cell lines (human cervical cancer Hela cells) (initial cell concentration was 2×10^4 cells/ml) after 48 h of treatment by 375 nM RA16-EPI.

[3] = tested on: human non-small cell lung cancer H460 transplanted tumor; test: RA16 on tumor growth in H460 subcutaneous tumor-bearing mice; assay type: in vivo; conditions: 2 nmol i.v. on days 0, 3, 5, 7, 9; tumor weighed on day 16
Procedure: In order to clarify the effect of the nucleic acid aptamer RA16 on the growth of human non-small cell lung cancer solid tumors, the inventors used model mice that were injected with human non-small cell lung cancer H460 cells and constructed with a subcutaneous tumor as experimental subjects (initial mean tumor volume was 100 mm^3 or so). They were randomly divided into two groups, each of which had 6 tumor-bearing mice. One group served as a negative control group (0.1 ml of normal saline was injected intravenously on the 0th, 3rd, 5th, 7th, and 9th days respectively); and the other was an RA16 treatment group (2 nmol of RA16 was injected intravenously the 0th, 3rd, 5th, 7th, and 9th days respectively). Every other day, the tumor diameter of the tumor-bearing mice was measured, the tumor volume was calculated, and the tumor growth curves were drawn (FIG. 4). On the 16th day, the tumor was extracted, the tumor was weighed, and the tumor growth inhibition rate was calculated.

[4] = tested on: human cervical cancer Hela cells; test: CCK-8 relative viability / proliferation of Hela cells; assay type: cell-based; conditions: CCK-8, 48 h, 300 nM or 0-400 nM
Procedure: as §1
as §2, with “2A-B. […]” for “2A-B.”

[5] = high dose, EPI 1.5 mg/kg/week i.v.
[6] = low dose, EPI 0.5 mg/kg/week i.v.

Molecule | Inhibition Rate (%) of tumor growth [1, 5] [%] | Tumor Weight [1, 5] [g] | Inhibition Rate (%) of tumor growth ([1]; high dose, EPI 1.5 mg/kg/week i.v., listed as EPI) [%] | Inhibition Rate (%) of tumor growth [1, 6] [%] | Tumor Weight [1, 6] [g] | effect on proliferation of H460 cells [2] | Inhibition Rate (%) of tumor growth [3] | effect on human cervical cancer Hela cells [4] | IC50 ([2]; CCK-8, 48 hours, 0-400 nM, read-out: IC50 of inhibition of proliferation of H460 cells) [µM]
COc1cccc2c1C(=O)c1c(O)c3c(c(O)c1C2=O)C[C@@](O)(C(=O)CO)C[C@@H]3O[C@H]1C[C@H](N)[C@@H](O)[C@H](C)O1 [Epirubicin] | 47.13 | 1.97 ± 0.38 | 47.13 | 28.76 | 2.65 ± 0.21 | – | – | – | –
SCAP: nucleic acid obtained by randomly shuffling the sequence of RA16, SEQ ID NO: 2, control (nucleic acid, listed as RNA, chemistry not given here) GGGAGAGAACAAUGACCUGUUGCAAGCGCGUCGGUAAUUCGCGCACAUGGCAGGCUUCUGAGUGCAUUGCAUCACGUCAGUAG | – | – | – | – | – | little effect | – | – | –
RA16: ribonucleic acid aptamer of SEQ ID NO: 1, prepared by in vitro transcription, binds human non-small cell lung cancer (nucleic acid, listed as RNA, chemistry not fully specified) GGGAGAGAACAAUGACCUGCGGUGCCAAGCCGUCGGGUUAUGUUGAUCUCCACAAGGACGAGUGCAUUGCAUCACGUCAGUAG | – | – | – | – | – | obviously inhibit the proliferation | 54.3% and 54.26% | no inhibitory effect; also recorded: no obvious effects; also recorded: no significant effect | 0.117

From patent US10351856B2, “Ribonucleic acid aptamer having inhibitory effect on non-small cell lung cancer and pharmaceutical composition comprising same” (BIOPHARMAGEN CORP., FANGZHOU SUZHOU, priority 2016, dated 2019)
